Legend:
[1] = target: T1, TrkB extracellular domain (ECD) (Rattus norvegicus, UniProt Q63604); assay: In vitro binding assay with [3H]7,8-dihydroxyflavone, filter, Scatchard plot: TrkB ECD
T1 construct: purified TrkB extracellular domain (ECD) and intracellular domain (ICD) recombinant proteins
Description: To determine whether 7,8-dihydroxyflavone physically and directly binds the TrkB receptor, in vitro binding assays were conducted with purified TrkB extracellular domain (ECD) and intracellular domain (ICD) recombinant proteins. Purified TrkB ECD and ICD (10 μg of each) were incubated with different concentrations of ^3H-7,8-dihydroxyflavone in 1 ml of binding buffer (0.05M Na/K phosphate buffer, pH 7.1, 200 mM NaCl) at 4° C. for 10 minutes. After the incubation, the reaction mixture was loaded on filter paper. The mixture was washed three times with Tris buffer (100 mM Tris, pH 7.1), and the dried filter paper was put into a small vial and subjected to liquid scintillation counter analysis. […] The value of the dissociate constant and the number of sites were obtained from Scatchard plots using the equation r/[L]free=n/Kd−r/Kd, where r is the ratio of the concentration of bound ligand to the total protein concentration and n is the number of binding sites.

[2] = target: GST-TrkB ICD (Rattus norvegicus, UniProt Q63604); assay: In vitro binding assay with immobilized GST-TrkB ICD on glutathione beads, UV-spectrometry of eluate; details: 500 nM, 4° C., 30 minutes, FIG. 17
GST-TrkB ICD, sequence (Q63604 454-821): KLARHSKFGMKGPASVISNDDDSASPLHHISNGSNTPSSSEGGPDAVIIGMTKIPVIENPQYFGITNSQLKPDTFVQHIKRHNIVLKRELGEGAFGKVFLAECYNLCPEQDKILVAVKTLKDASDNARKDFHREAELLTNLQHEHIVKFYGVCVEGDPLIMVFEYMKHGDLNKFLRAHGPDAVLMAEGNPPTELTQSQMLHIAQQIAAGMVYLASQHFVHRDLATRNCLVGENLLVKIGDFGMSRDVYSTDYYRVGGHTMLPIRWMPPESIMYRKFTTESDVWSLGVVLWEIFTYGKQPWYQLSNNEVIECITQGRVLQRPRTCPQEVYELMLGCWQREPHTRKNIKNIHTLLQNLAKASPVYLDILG
Description: To further explore the association of 7,8-dihydroxyflavone and the TrkB receptor, an in vitro binding assay was performed. Increasing volumes of GST-TrkB ECD and GST-TrkB ICD were bound to glutathione beads to a total of 250 uL, and 500 nM 7,8-dihydroxyflavone in 250 μl (20% DMSO/80% PBS) was incubated with the beads in the column at 4° C. for 30 minutes. After the incubation, the elute fractions were collected and the concentration of eluted 7,8-dihydroxyflavone was analyzed by UV-spectrometry at a wavelength of 410 nm.

[3] = target: T2, TrkB (Mus musculus, UniProt P15209); assay: Trk activation in cortical neurons from wild-type and TrkB-null pups: TrkB; type: cell-based, mice; details: wild-type but not TrkB-null neurons, FIG. 21
T2 construct: from tissue; host or cells: mouse brain
T2 sequence (P15209 32-821): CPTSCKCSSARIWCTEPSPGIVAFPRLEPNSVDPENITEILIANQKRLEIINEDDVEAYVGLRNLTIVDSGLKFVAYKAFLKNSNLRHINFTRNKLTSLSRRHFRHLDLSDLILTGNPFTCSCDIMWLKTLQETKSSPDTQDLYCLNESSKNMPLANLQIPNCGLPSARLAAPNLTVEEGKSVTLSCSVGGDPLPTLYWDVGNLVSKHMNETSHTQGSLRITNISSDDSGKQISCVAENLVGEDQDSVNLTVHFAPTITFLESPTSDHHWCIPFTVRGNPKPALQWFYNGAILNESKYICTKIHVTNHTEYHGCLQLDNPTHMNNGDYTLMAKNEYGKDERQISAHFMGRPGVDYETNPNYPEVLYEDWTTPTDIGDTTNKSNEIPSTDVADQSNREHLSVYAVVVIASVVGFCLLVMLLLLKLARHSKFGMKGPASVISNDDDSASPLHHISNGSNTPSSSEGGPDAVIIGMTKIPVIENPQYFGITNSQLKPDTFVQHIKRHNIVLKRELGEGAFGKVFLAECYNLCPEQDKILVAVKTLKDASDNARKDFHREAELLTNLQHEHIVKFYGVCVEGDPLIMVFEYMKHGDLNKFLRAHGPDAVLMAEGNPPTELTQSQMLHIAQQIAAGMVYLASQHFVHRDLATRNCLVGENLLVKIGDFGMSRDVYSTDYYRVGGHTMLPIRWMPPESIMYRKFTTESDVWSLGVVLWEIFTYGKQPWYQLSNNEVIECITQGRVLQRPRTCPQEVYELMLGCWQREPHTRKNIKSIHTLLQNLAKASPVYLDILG
Description: To determine whether 7,8-dihydroxyflavone can selectively activate TrkB receptor and prevent neuronal cell death, cortical neurons were prepared from homozygous pups of TrkB+/−mice, which were mated to the same genotype. […] Glutamate nonselectively elicited weak TrkA phosphorylation in both wild-type and TrkB-null neurons (FIG. 21, row 3).

[4] = system: KA-induced neuronal apoptosis; assay: Kainic acid time course assay, oral TrkB agonists (caspase-3 immunoblot of brain lysates); type: in vivo, C57BL/6J mice; details: 1 mg/kg orally, KA 20 mg/kg i.p., FIG. 30 right
Description: Male C57BL/6 mice age 60 days were orally injected with a single dose of 4′-DMA-7,8-DHF or 7,8-DHF (1 mg/kg each). KA (20 mg/kg) was i.p. injected. Animals were continually monitored for 2 hours for the onset of seizure activity. At 0, 4 and 8 hours following TrkB agonist treatment, the animals were sacrificed and the brain lysates were analyzed by immunoblotting with p-TrkB-Y817, active caspase-3 and total TrkB antibodies.
To investigate whether these compounds exert any neuroprotective effects in animals, a time course assay was conducted.

[5] = Toxicity after 3-week chronic treatment (organ pathology, complete blood count); type: in vivo, mice
Description: To explore whether 4′-dimethylamino-7,8-dihydroxyflavone and 7,8-dihydroxyflavone have any intolerable toxicity, the major organs from mice treated with both compounds at 5 mg/kg/day for 3 weeks were analyzed.

[6] = system: hippocampal neurons; assay: Oxygen-Glucose Deprivation (OGD) of hippocampal neurons; type: cell-based
Description: To explore whether 7,8-dihydroxyflavone exerts any protective effect on hippocampal neurons in Oxygen-Glucose Deprivation (OGD), primary preparations of neurons were treated with BDNF or various flavone derivatives for 30 minutes prior to OGD.

[7] = target: T3, TrkB (Rattus norvegicus, UniProt Q63604); assay: Western analysis of TrkB activation in hippocampal neurons; type: cell-based; design: endogenous in cells; host or cells: primary hippocampal neurons; details: FIG. 9
T3 sequence (Q63604 32-821): as the sequence (P15209 32-821) above, with T3M, S9T, A10T, V32I, R63K, S84G, M153T, L185I, S394T, S770N counted along it
Description: To further examine whether 7,8-dihydroxyflavone can stimulate TrkB-mediated downstream signaling cascades, Western analysis was performed.
To further test that the stimulatory effect of 7,8-dihydroxyflavone is mediated through TrkB, cells were either untreated or treated with K252a, a selective inhibitor of the tyrosine kinase activity of the Trk family of neutrophin receptors.

[8] = target: T3, TrkB; assay: Tyrosine phosphorylation of Trk receptors in transfected HEK293 cells: TrkB; type: cell-based; design: expressed in transfected cells; host or cells: HEK293; details: FIG. 15
Excerpt: To determine if 7,8-dihydroxyflavone promoted tyrosine phosphorylation of the other Trk receptors, HEK293 cells were transfected with various Trk receptors, followed by treatment with 7,8-dihydroxyflavone.

[9] = target: T3, TrkB; assay: TrkB activation in primary cortical neurons (p-TrkB Y817 immunoblotting); type: cell-based; design: endogenous in cells; host or cells: primary cortical neurons; details: FIG. 27 right
Description: Primary cultured rat cortical neurons were prepared as follows. E17 rat pups were decapitated and cortex was extirpated, cross chopped, and suspended by pipetting for separation in 5% fetal calf serum (FCS), 5% horse serum (HS) DMEM. The cell suspension was then centrifuged at 250×g for 5 minutes. This operation was repeated again. Cells were seeded into polyethyleneimine-coated 10 cm^2 dishes and 12-well plates including coated-coverslips and incubated at 37° C. in 5% CO2/95% air. After 3 hours, the culture medium was changed to Neurobasal containing B-27 supplement (Invitrogen; Carlsbad, Calif.) and incubated for 4 days. For maintenance, half of the culture medium was changed to fresh Neurobasal/B27 every 4 days. After 1 week, the dished cultured neurons were ready for use.
To compare the TrkB activation by the synthetic compounds of Examples 9 and 10 (see FIG. 26), primary cortical cultures were prepared. The cortical neurons were treated with 500 nM of various compounds for 30 min and collected the cell lysates. […] Replacing the H-bond acceptor O atom with hydrogen bond donor NH reduced its stimulatory effect. […] In comparison, 7,8-DHF provoked TrkB activation with the minimal concentration of 100 nM (FIG. 27, right panels).

T1 sequence (Q63604 32-429 limits assumed): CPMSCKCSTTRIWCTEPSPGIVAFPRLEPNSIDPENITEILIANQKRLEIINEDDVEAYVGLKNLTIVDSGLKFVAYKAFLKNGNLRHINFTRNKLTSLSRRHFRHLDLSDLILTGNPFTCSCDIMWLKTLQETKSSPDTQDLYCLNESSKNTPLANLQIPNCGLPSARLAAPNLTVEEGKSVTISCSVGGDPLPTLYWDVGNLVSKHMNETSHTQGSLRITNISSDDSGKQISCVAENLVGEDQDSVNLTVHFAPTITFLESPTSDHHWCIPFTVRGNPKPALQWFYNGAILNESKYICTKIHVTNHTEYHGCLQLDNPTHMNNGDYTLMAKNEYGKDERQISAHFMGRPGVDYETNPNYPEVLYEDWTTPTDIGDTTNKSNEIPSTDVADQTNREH

O=c1cc(-c2ccccc2)oc2c(O)c(O)ccc12 [7,8-dihydroxyflavone]
Kd ([1]; Scatchard plot, 4° C., 10 minutes, FIG. 16, read-out: binding constant Kd): 320 nM
binding to TrkB ECD ([1]; gradual increments of [3H]-7,8-dihydroxyflavone): progressively bound TrkB ECD
concentration of eluted compound as GST-TrkB ICD volumes increased [2]: remained constant
TrkB activation in wild-type neurons [3]: specifically activates TrkB
KA-induced caspase-3 activation at 4 h [4]: reduced
active caspase-3 at 8 h [4]: slightly increased
toxicity to the mice ([5]; 5 mg/kg/day dose for 3-week chronic treatment): neither compound was toxic
complete blood count (CBC) versus control saline-treated mice ([5]; mouse, in vivo): no significant difference
protective effect in OGD ([6]; 30 minutes prior to OGD, apoptotic analysis in 3 hours, FIG. 7 left): most potent protective effects among the compounds
titration assay of protection in OGD ([6]; FIG. 7 right): protects neurons in a dose-dependent manner
activation of TrkB (Western) [7]: demonstrated activation of TrkB
tyrosine phosphorylation of TrkB receptor [8]: elicited tyrosine phosphorylation
minimal concentration triggering TrkB activation (titration assay) [9]: 100 nM

From patent publication US9895344B2, “Treating various disorders with 7,8-dihydroxyflavone and derivatives thereof” (EMORY UNIVERSITY, priority 2008, dated 2018)
